In the supplement of paper PMC5908809:

Columns and labels:
NK-92 (IL-2 2.5 ng/mL) [1] = assay: drug sensitivity score (DSS) (DSS units); higher = more sensitive; extreme values may be limits of the assay; details: 72 h
[2] = system: normal primary NK cells, pool 1 (3 donors) (IL-2 2.5 ng/mL); assay: as above; details: 72 h
[3] = system: normal primary NK cells, pool 3 (3 donors) (IL-2 2.5 ng/mL); assay: as above; details: 72 h
IMC-1 (IL-2 20 ng/mL) [4] = assay: as above; details: 72 h
[5] = system: normal primary NK cells, pool 2 (3 donors) (IL-2 2.5 ng/mL); assay: as above; details: 72 h
NKL (IL-2 2.5 ng/mL) [6] = assay: as above; details: 72 h
KAI3 (IL-2 2.5 ng/mL) [7] = assay: as above; details: 72 h
[8] = system: normal primary NK cells, pool 1 (3 donors), resting (IL-2 0 ng/mL); assay: as above; details: 72 h
SNK-6 (IL-2 2.5 ng/mL) [9] = assay: as above; details: 72 h
DERL-7 (IL-2 2.5 ng/mL) [10] = assay: as above; details: 72 h
YT (IL-2 2.5 ng/mL) [11] = assay: as above; details: 72 h
NK-YS (IL-2 2.5 ng/mL) [12] = assay: as above; details: 72 h
KHYG-1 (IL-2 2.5 ng/mL) [13] = assay: as above; details: 72 h
NK-92 (IL-2 2.5 ng/mL) [14] = assay: percent inhibition of viability; higher = more inhibition; details: 72 h
[15] = system: normal primary NK cells, pool 1 (3 donors) (IL-2 2.5 ng/mL); assay: as above; details: 72 h
[16] = system: normal primary NK cells, pool 3 (3 donors) (IL-2 2.5 ng/mL); assay: as above; details: 72 h
IMC-1 (IL-2 20 ng/mL) [17] = assay: as above; details: 72 h
[18] = system: normal primary NK cells, pool 2 (3 donors) (IL-2 2.5 ng/mL); assay: as above; details: 72 h
NKL (IL-2 2.5 ng/mL) [19] = assay: as above; details: 72 h
KAI3 (IL-2 2.5 ng/mL) [20] = assay: as above; details: 72 h
[21] = system: normal primary NK cells, pool 1 (3 donors), resting (IL-2 0 ng/mL); assay: as above; details: 72 h
SNK-6 (IL-2 2.5 ng/mL) [22] = assay: as above; details: 72 h
DERL-7 (IL-2 2.5 ng/mL) [23] = assay: as above; details: 72 h
YT (IL-2 2.5 ng/mL) [24] = assay: as above; details: 72 h
NK-YS (IL-2 2.5 ng/mL) [25] = assay: as above; details: 72 h
KHYG-1 (IL-2 2.5 ng/mL) [26] = assay: as above; details: 72 h
[27] = system: normal NK cells expanded with K562-aAPC; assay: as above; details: 72 h, IL-2 2.5 ng/mL
Method: (§1)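 Drug sensitivity and resistance testing on K562-aAPC-expanded normal NK cells: 5 concentrations (10-fold steps over a 10,000-fold range), 72 h at 37 °C, viability by CellTiter-Glo normalised to DMSO and benzethonium chloride controls; DSS from the fitted curve.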

[28] = system: normal NK cells expanded with K562-aAPC; assay: drug sensitivity score (DSS) (DSS units); higher = more sensitive; extreme values may be limits of the assay; details: 72 h; IL-2 2.5 ng/mL
Method: as §1

Question: Which results are given for Cc1ccc2nc(CN(CCN(Cc3nc4ccc(C)cc4[nH]3)Cc3nc4ccc(C)cc4[nH]3)Cc3nc4ccc(C)cc4[nH]3)[nH]c2c1 (max concentration tested 50000 nM)?
Answer: drug sensitivity score (NK-92 (IL-2 2.5 ng/mL) [1]): 12.5; drug sensitivity score [2]: 9.43; drug sensitivity score [3]: 2.31; drug sensitivity score (IMC-1 (IL-2 20 ng/mL) [4]): 4.41; drug sensitivity score [5]: 3.42; drug sensitivity score (NKL (IL-2 2.5 ng/mL) [6]): 15.5; drug sensitivity score (KAI3 (IL-2 2.5 ng/mL) [7]): 13.3; drug sensitivity score [8]: 9.11; drug sensitivity score (SNK-6 (IL-2 2.5 ng/mL) [9]): 4.89; drug sensitivity score (DERL-7 (IL-2 2.5 ng/mL) [10]): 9.01; drug sensitivity score (YT (IL-2 2.5 ng/mL) [11]): 9.85; drug sensitivity score (NK-YS (IL-2 2.5 ng/mL) [12]): 8.57; drug sensitivity score (KHYG-1 (IL-2 2.5 ng/mL) [13]): 10.5; percent inhibition of viability (NK-92 (IL-2 2.5 ng/mL) [14]; 5 nM): -27.1%; percent inhibition of viability (NK-92 (IL-2 2.5 ng/mL) [14]; 50 nM): -13.1%; percent inhibition of viability (NK-92 (IL-2 2.5 ng/mL) [14]; 500 nM): 15.2%; percent inhibition of viability (NK-92 (IL-2 2.5 ng/mL) [14]; 5000 nM): 54.5%; percent inhibition of viability (NK-92 (IL-2 2.5 ng/mL) [14]; 50000 nM): 110%; percent inhibition of viability ([15]; 5 nM): -9.49%; percent inhibition of viability ([15]; 50 nM): 4.67%; percent inhibition of viability ([15]; 500 nM): 4.72%; percent inhibition of viability ([15]; 5000 nM): 25.6%; percent inhibition of viability ([15]; 50000 nM): 101%; percent inhibition of viability ([16]; 5 nM): -5.58%; percent inhibition of viability ([16]; 50 nM): -1.41%; percent inhibition of viability ([16]; 500 nM): 10.2%; percent inhibition of viability ([16]; 5000 nM): 5.2%; percent inhibition of viability ([16]; 50000 nM): 32.2%; percent inhibition of viability (IMC-1 (IL-2 20 ng/mL) [17]; 5 nM): -6.83%; percent inhibition of viability (IMC-1 (IL-2 20 ng/mL) [17]; 50 nM): -3.4%; percent inhibition of viability (IMC-1 (IL-2 20 ng/mL) [17]; 500 nM): -4.29%; percent inhibition of viability (IMC-1 (IL-2 20 ng/mL) [17]; 5000 nM): 10.4%; percent inhibition of viability (IMC-1 (IL-2 20 ng/mL) [17]; 50000 nM): 51.3%; percent inhibition of viability ([18]; 5 nM): -1.51%; percent inhibition of viability ([18]; 50 nM): 3.91%; percent inhibition of viability ([18]; 500 nM): 12.8%; percent inhibition of viability ([18]; 5000 nM): 12.1%; percent inhibition of viability ([18]; 50000 nM): 37.9%; percent inhibition of viability (NKL (IL-2 2.5 ng/mL) [19]; 5 nM): 2.31%; percent inhibition of viability (NKL (IL-2 2.5 ng/mL) [19]; 50 nM): -9.86%; percent inhibition of viability (NKL (IL-2 2.5 ng/mL) [19]; 500 nM): 19.8%; percent inhibition of viability (NKL (IL-2 2.5 ng/mL) [19]; 5000 nM): 69.1%; percent inhibition of viability (NKL (IL-2 2.5 ng/mL) [19]; 50000 nM): 107%; percent inhibition of viability (KAI3 (IL-2 2.5 ng/mL) [20]; 5 nM): -0.45%; percent inhibition of viability (KAI3 (IL-2 2.5 ng/mL) [20]; 50 nM): -7.54%; percent inhibition of viability (KAI3 (IL-2 2.5 ng/mL) [20]; 500 nM): 8.33%; percent inhibition of viability (KAI3 (IL-2 2.5 ng/mL) [20]; 5000 nM): 62.9%; percent inhibition of viability (KAI3 (IL-2 2.5 ng/mL) [20]; 50000 nM): 110%; percent inhibition of viability ([21]; 5 nM): -25.9%; percent inhibition of viability ([21]; 50 nM): 1.32%; percent inhibition of viability ([21]; 500 nM): 12.4%; percent inhibition of viability ([21]; 5000 nM): 24.8%; percent inhibition of viability ([21]; 50000 nM): 99.8%; percent inhibition of viability (SNK-6 (IL-2 2.5 ng/mL) [22]; 5 nM): -21%; percent inhibition of viability (SNK-6 (IL-2 2.5 ng/mL) [22]; 50 nM): -28.4%; percent inhibition of viability (SNK-6 (IL-2 2.5 ng/mL) [22]; 500 nM): -6.29%; percent inhibition of viability (SNK-6 (IL-2 2.5 ng/mL) [22]; 5000 nM): -12.1%; percent inhibition of viability (SNK-6 (IL-2 2.5 ng/mL) [22]; 50000 nM): 101%; percent inhibition of viability (DERL-7 (IL-2 2.5 ng/mL) [23]; 5 nM): 2.65%; percent inhibition of viability (DERL-7 (IL-2 2.5 ng/mL) [23]; 50 nM): -5.22%; percent inhibition of viability (DERL-7 (IL-2 2.5 ng/mL) [23]; 500 nM): 4.05%; percent inhibition of viability (DERL-7 (IL-2 2.5 ng/mL) [23]; 5000 nM): 22%; percent inhibition of viability (DERL-7 (IL-2 2.5 ng/mL) [23]; 50000 nM): 101%; percent inhibition of viability (YT (IL-2 2.5 ng/mL) [24]; 5 nM): -8.1%; percent inhibition of viability (YT (IL-2 2.5 ng/mL) [24]; 50 nM): -15.1%; percent inhibition of viability (YT (IL-2 2.5 ng/mL) [24]; 500 nM): -6.51%; percent inhibition of viability (YT (IL-2 2.5 ng/mL) [24]; 5000 nM): 29.4%; percent inhibition of viability (YT (IL-2 2.5 ng/mL) [24]; 50000 nM): 108%; percent inhibition of viability (NK-YS (IL-2 2.5 ng/mL) [25]; 5 nM): -2.1%; percent inhibition of viability (NK-YS (IL-2 2.5 ng/mL) [25]; 50 nM): -1.56%; percent inhibition of viability (NK-YS (IL-2 2.5 ng/mL) [25]; 500 nM): 2.07%; percent inhibition of viability (NK-YS (IL-2 2.5 ng/mL) [25]; 5000 nM): 18.1%; percent inhibition of viability (NK-YS (IL-2 2.5 ng/mL) [25]; 50000 nM): 107%; percent inhibition of viability (KHYG-1 (IL-2 2.5 ng/mL) [26]; 5 nM): -9.01%; percent inhibition of viability (KHYG-1 (IL-2 2.5 ng/mL) [26]; 50 nM): -6.49%; percent inhibition of viability (KHYG-1 (IL-2 2.5 ng/mL) [26]; 500 nM): -6.15%; percent inhibition of viability (KHYG-1 (IL-2 2.5 ng/mL) [26]; 5000 nM): 36.3%; percent inhibition of viability (KHYG-1 (IL-2 2.5 ng/mL) [26]; 50000 nM): 108%; percent inhibition of viability ([27]; 5 nM): -4.88%; percent inhibition of viability ([27]; 50 nM): -8.25%; percent inhibition of viability ([27]; 500 nM): -3.73%; percent inhibition of viability ([27]; 5000 nM): 17.5%; percent inhibition of viability ([27]; 50000 nM): 100%; drug sensitivity score [28]: 8.41
